Test results as given in patent US11254690B2, “PTEFb inhibiting macrocyclic compounds” (BAYER AKTIENGESELLSCHAFT, priority 2017, dated 2022).

Assays:
Caco-2 cells = experiment: Proliferation assay, Caco-2; assay type: cell-based; settings: Homo sapiens, Caco-2, 96 h; 4 days, crystal violet; read-out: Inhibition of Caco-2 cell proliferation IC50
Experimental: Cultivated tumour cells (HeLa, human cervical tumour cells, ATCC CCL-2; NCI-H460, human non-small cell lung carcinoma cells, ATCC HTB-177; DU 145, hormone-independent human prostate carcinoma cells, ATCC HTB-81; HeLa-MaTu-ADR, multidrug-resistant human cervical carcinoma cells, EPO-GmbH Berlin; Caco-2, human colorectal carcinoma cells, ATCC HTB-37; B16F10, mouse melanoma cells, ATCC CRL-6475) were plated at a density of 5,000 cells/well (DU145, HeLa-MaTu-ADR), 3,000 cells/well (NCI-H460, HeLa), 1,500 cells/well (Caco-2), or 1,000 cells/well (B16F10) in a 96-well multititer plate in 200 μL of their respective growth medium supplemented 10% fetal calf serum. After 24 hours, the cells of one plate (zero-point plate) were stained with crystal violet (see below), while the medium of the other plates was supplemented with the test substances in various concentrations (0 μM, as well as in the range of 0.0001-10 μM; the final concentration of the solvent dimethyl sulfoxide was adjusted to 0.1%) using a Hewlett-Packard HP D300 Digital Dispenser. The cells were incubated for 4 days in the presence of test substances. Cell proliferation was determined by staining the cells with crystal violet: the cells were fixed by adding 20 μl/measuring point of an 11% glutaric aldehyde solution for 15 minutes at room temperature. After three washing cycles of the fixed cells with water, the plates were dried at room temperature. The cells were stained by adding 100 μl/measuring point of a 0.1% crystal violet solution (pH 3.0). After three washing cycles of the stained cells with water, the plates were dried at room temperature. The dye was dissolved by adding 100 μl/measuring point of a 10% acetic acid solution. The extinction was determined by photometry at a wavelength of 595 nm. The change of cell number, in percent, was calculated by normalization of the measured values to the extinction values of the zero-point plate (=0%) and the extinction of the untreated ([…]) cells (=100%). The IC50 values (inhibitory concentration at 50% of maximal effect) were determined by means of a 4 parameter fit. A2780 human ovarian carcinoma cells (ECACC #93112519) and non-adherent MOLM-13 human acute myeloid leukemia cells (DSMZ ACC 554) were seeded at a density of 3,000 cell/well (A2780) or 5,000 cells/well (MOLM-13) in a 96-well multititer plate in 150 μL of growth medium supplemented 10% fetal calf serum. After 24 hours, cell viability of one plate (zero-point plate) was determined with the Cell Titre-Glo Luminescent Cell Viability Assay (Promega), while the medium of the other plates was supplemented with the test substances in various concentrations (0 μM, as well as in the range of 0.0001-10 μM; the final concentration of the solvent dimethyl sulfoxide was adjusted to 0.1%) using a Hewlett-Packard HP D300 Digital Dispenser. Cell viability was assessed after 72-hour exposure with the Cell Titre-Glo Luminescent Cell Viability Assay (Promega). IC50 values (inhibitory concentration at 50% of maximal effect) were determined by means of a 4 parameter fit on measurement data which were normalized to vehicle (DMSO) treated cells (=100%) and measurement readings taken immediately before compound exposure (=0%).

[1] = target: T1, human PTEFb (CDK9/Cyclin T1) (Homo sapiens, UniProt P50750); experiment: Surface Plasmon Resonance PTEFb; assay type: binding; settings: SPR, 37° C.
T1 construct: purchased ProQinase, Freiburg, Germany
Text: 8. Surface Plasmon Resonance PTEFb
The term “surface plasmon resonance”, as used herein, refers to an optical phenomenon that allows for the analysis of the reversible associations of biological molecules in real time within a biosensor matrix, for example using the Biacore® system (GE Healthcare Biosciences, Uppsala, Sweden). Biacore® uses the optical properties of surface plasmon resonance (SPR) to detect alterations in the refractive index of a buffer, which changes as molecules in solution interact with the target immobilized on the surface. In brief, proteins are covalently bound to the dextran matrix at a known concentration and a ligand for the protein is injected through the dextran matrix. Near infrared light, directed onto the opposite side of the sensor chip surface is reflected and also induces an evanescent wave in the gold film, which in turn, causes an intensity dip in the reflected light at a particular angle known as the resonance angle. If the refractive index of the sensor chip surface is altered (e.g. by compound binding to the bound protein) a shift occurs in the resonance angle. This angle shift can be measured.
The term “KD”, as used herein, is intended to refer to the equilibrium dissociation constant of a particular compound/target protein complex.
The term “koff”, as used herein, is intended to refer to the off-rate, i.e. the dissociation rate constant of a particular compound/target protein complex.
The term “target residence time”, as used herein, is intended to refer to the inverse of the rate of dissociation rate constant (1/koff) of a particular compound/target protein complex.
The ability of the compounds according to the invention to bind human PTEFb may be determined using surface plasmon resonance (SPR). KD values and koff values may be measured using a Biacore® T200 instrument (GE Healthcare, Uppsala, Sweden).
For SPR measurements, recombinant human PTEFb (CDK9/Cyclin T1 recombinant human active protein kinase purchased from ProQinase, Freiburg, Germany) is immobilized using standard amine coupling (Johnsson B et al, Anal Biochem. 1991 Nov. 1; 198(2):268-77). Briefly, carboxymethylated dextran biosensor chips (CM7, GE Healthcare) are activated with N-ethyl-N′-(3-dimethylaminopropyl)-carbodiimide hydrochloride (EDC) and N-hydroxysuccinimide (NHS) according to the supplier's instructions. Human PTEFb is diluted in 1×HBS-EP+ (GE Healthcare) and injected on the activated chip surface. Subsequently, a 1:1 solution of 1 M ethanolamine-HCl (GE Healthcare) and 1×HBS-EP is injected to block unreacted groups, resulting in approximately 4000 response units (RU) of immobilized protein. A reference surface is generated by treatment with NHS-EDC and ethanolamine-HCl. Compounds are dissolved in 100% dimethylsulfoxide (DMSO, Sigma-Aldrich, Germany) to a concentration of 10 mM and subsequently diluted in running buffer (1×HBS-EP+pH 7.4 [generated from HBS-EP+ Buffer 10× (GE Healthcare): 0.1 M HEPES, 1.5 M NaCl, 30 mM EDTA and 0.5% v/v Surfactant P20], 1% v/v DMSO). For kinetic measurements, serial dilutions of compound (0.78 nM up to 25 nM) are injected over immobilized protein. Binding kinetics is measured at 37° C. with a flow rate of 100 μl/min in running buffer. Compound concentrations are injected for 70 s followed by a dissociation time of 1100 s. The resulting sensorgrams are double-referenced against the reference surface as well as against blank injections.
The double-referenced sensorgrams are fit to a simple reversible Langmuir 1:1 reaction mechanism as implemented in the Biacore® T200 evaluation software 2.0 (GE Healthcare). In cases were full compound dissociation has not occurred at the end of the dissociation phase, the Rmax parameter (response at saturation) is fit as local variable. In all other cases, Rmax is fit as global variable.

T1 sequence (P50750 whole entry): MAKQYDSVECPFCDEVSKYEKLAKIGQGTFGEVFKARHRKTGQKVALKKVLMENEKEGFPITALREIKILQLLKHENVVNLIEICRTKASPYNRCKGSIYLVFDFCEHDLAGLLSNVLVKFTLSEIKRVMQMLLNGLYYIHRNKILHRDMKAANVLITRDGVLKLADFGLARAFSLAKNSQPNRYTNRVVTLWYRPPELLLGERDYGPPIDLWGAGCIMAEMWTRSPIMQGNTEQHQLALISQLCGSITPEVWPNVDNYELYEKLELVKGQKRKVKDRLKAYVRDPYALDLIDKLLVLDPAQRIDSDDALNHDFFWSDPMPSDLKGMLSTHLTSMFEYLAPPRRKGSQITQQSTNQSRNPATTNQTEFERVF
T1 sequence (O60563 whole entry partner): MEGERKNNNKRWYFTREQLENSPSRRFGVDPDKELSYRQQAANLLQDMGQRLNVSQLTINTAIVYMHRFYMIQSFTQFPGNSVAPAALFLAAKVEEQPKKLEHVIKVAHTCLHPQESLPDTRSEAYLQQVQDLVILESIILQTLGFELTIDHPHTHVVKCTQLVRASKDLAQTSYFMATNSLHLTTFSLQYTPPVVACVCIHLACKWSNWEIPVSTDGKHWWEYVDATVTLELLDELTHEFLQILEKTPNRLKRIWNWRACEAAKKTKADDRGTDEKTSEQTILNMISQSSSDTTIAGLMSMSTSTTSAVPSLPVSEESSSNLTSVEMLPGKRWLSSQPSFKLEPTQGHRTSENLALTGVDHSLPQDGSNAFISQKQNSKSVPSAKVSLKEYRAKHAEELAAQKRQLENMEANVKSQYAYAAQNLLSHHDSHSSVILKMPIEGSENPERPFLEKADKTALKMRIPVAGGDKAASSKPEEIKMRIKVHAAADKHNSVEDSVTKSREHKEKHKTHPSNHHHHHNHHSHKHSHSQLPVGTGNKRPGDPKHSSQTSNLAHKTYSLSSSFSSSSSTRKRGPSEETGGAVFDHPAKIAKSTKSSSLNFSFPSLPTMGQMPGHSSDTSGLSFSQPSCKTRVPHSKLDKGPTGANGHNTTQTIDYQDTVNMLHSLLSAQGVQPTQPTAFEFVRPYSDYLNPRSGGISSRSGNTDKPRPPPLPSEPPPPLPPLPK

IC50 (Caco-2 cells): 0.177 µM | residence time ([1]; 1/koff, * = arithmetic means, read-out: Target residence time): 25 min | Kd ([1]; * = arithmetic means of more than one value, read-out: Equilibrium dissociation constant KD): 0.0012 µM | koff ([1]; * = arithmetic means, < = below what is resolvable, read-out: Dissociation rate constant koff): 0.00067 s⁻¹
Compound: CS(=N)(=O)Cc1cc2cc(c1)OCCCCOc1cc(ccc1F)-c1nc(ncc1F)N2 (racemic) [Example 4, (rac)-3,20-difluoro-10-[(S-methylsulfonimidoyl)methyl]-13,18-dioxa-5,7,25-triazatetracyclo[17.3.1.1^2,6.1^8,12]pentacosa-1(23),2(25),3,5,8(24),9,11,19,21-nonaene]
